# Test results reported in PubChem BioAssay AID212 (DTP/NCI, 2004).
# Where “and” joins values, the source holds several entries; their conditions need not be identical. Equal entries are not always repeated. Results filed as inconclusive are left out.
# System: BDF1 mice, colon carcinoma 38 sc, T/C %
# Test: NCI In Vivo Anticancer Drug Screen. Data for tumor model Colon Carcinoma 38 (subcutaneous) in B6D2F1 (BDF1) mice
# Summary of the method: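 Transplantable tumor in mice; compound-treated vs vehicle-dosed controls. Measured survival or tumor size; value = T ÷ C.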
# [1] = endpoint: median tumor weight (est.), dose: 25.0 mg/kg/injection, schedule: Q07DX002 (ip), vehicle: Klucel (hydroxypropylcellulose) (HPC), higher = larger tumour
# [2] = endpoint: median tumor weight (est.), dose: 50.0 mg/kg/injection, schedule: Q07DX002 (ip), vehicle: Klucel (hydroxypropylcellulose) (HPC), higher = larger tumour
# [3] = endpoint: median tumor weight (est.), dose: 12.5 mg/kg/injection, schedule: Q07DX002 (ip), vehicle: suspension in saline, higher = larger tumour
# [4] = endpoint: median tumor weight (est.), dose: 25.0 mg/kg/injection, schedule: Q07DX002 (ip), vehicle: suspension in saline, higher = larger tumour
# [5] = endpoint: median tumor weight (est.), dose: 50.0 mg/kg/injection, schedule: Q07DX002 (ip), vehicle: suspension in saline, higher = larger tumour
structure (smiles),measurement,setting,value
C[C@]12CCC(=O)C(O)=C1CC[C@@H]1[C@@H]2CC[C@]2(C)C(=O)CC[C@@H]12,T/C,[1],82 % of control
same,T/C,[2],110 % of control and 101 % of control
same,T/C,"endpoint: median tumor weight (est.), dose: 100.0 mg/kg/injection, schedule: Q07DX002 (ip), vehicle: Klucel (hydroxypropylcellulose) (HPC), higher = larger tumour",176 % of control and 186 % of control
same,T/C,"endpoint: median tumor weight (est.), dose: 200.0 mg/kg/injection, schedule: Q07DX002 (ip), vehicle: Klucel (hydroxypropylcellulose) (HPC), higher = larger tumour",59 % of control and 84 % of control
COc1cc(Cc2nccc3cc(OC)c(OC)cc23)c(C(C)=O)cc1OC,T/C,[3],166 % of control
same,T/C,[4],108 % of control
same,T/C,[5],110 % of control
same,T/C,"endpoint: median tumor weight (est.), dose: 100.0 mg/kg/injection, schedule: Q07DX002 (ip), vehicle: suspension in saline, higher = larger tumour",69 % of control
c1ccc([C@H]2CN3CCSC3=N2)cc1,T/C,"endpoint: median tumor weight (est.), dose: 10.0 mg/kg/injection, schedule: Q07DX003 (ip), vehicle: saline, higher = larger tumour",77 % of control
same,T/C,"endpoint: median tumor weight (est.), dose: 40.0 mg/kg/injection, schedule: Q07DX003 (ip), vehicle: saline, higher = larger tumour",45 % of control
O=C1C=CN(C2OC(CO)C(O)C2O)C(=O)C1 (stereo unspecified),T/C,"endpoint: median tumor weight (est.), dose: 25.0 mg/kg/injection, schedule: Q07DX003 (ip), vehicle: saline, higher = larger tumour",121 % of control
same,T/C,"endpoint: median tumor weight (est.), dose: 100.0 mg/kg/injection, schedule: Q07DX003 (ip), vehicle: saline, higher = larger tumour",73 % of control
same,T/C,"endpoint: median tumor weight (est.), dose: 200.0 mg/kg/injection, schedule: Q07DX003 (ip), vehicle: saline, higher = larger tumour",163 % of control
OC(C1CO1)C(O)C1CO1 (stereo unspecified),T/C,"endpoint: median tumor weight (est.), dose: 1.0 mg/kg/injection, schedule: Q07DX002 (ip), vehicle: saline, higher = larger tumour",83 % of control
same,T/C,"endpoint: median tumor weight (est.), dose: 1.0 mg/kg/injection, schedule: Q07DX003 (ip), vehicle: saline, higher = larger tumour",71 % of control and 81 % of control
same,T/C,"endpoint: median tumor weight (est.), dose: 2.0 mg/kg/injection, schedule: Q07DX002 (ip), vehicle: saline, higher = larger tumour",114 % of control
same,T/C,"endpoint: median tumor weight (est.), dose: 2.0 mg/kg/injection, schedule: Q07DX003 (ip), vehicle: saline, higher = larger tumour",70 % of control and 86 % of control
same,T/C,"endpoint: median tumor weight (est.), dose: 4.0 mg/kg/injection, schedule: Q07DX003 (ip), vehicle: saline, higher = larger tumour",5 % of control and 30 % of control
same,T/C,"endpoint: median tumor weight (est.), dose: 8.0 mg/kg/injection, schedule: Q07DX002 (ip), vehicle: saline, higher = larger tumour",58 % of control
same,T/C,"endpoint: median tumor weight (est.), dose: 8.0 mg/kg/injection, schedule: Q07DX003 (ip), vehicle: saline, higher = larger tumour",8 % of control and 20 % of control
Nc1nccc2c1ncn2C1OC(CO)C(O)C1O (stereo unspecified),T/C,"endpoint: median tumor weight (est.), dose: 4.6 mg/kg/injection, schedule: Q03HX024 (ip), vehicle: saline with Tween-80, higher = larger tumour",103 % of control
same,T/C,"endpoint: median tumor weight (est.), dose: 9.3 mg/kg/injection, schedule: Q03HX024 (ip), vehicle: saline with Tween-80, higher = larger tumour",114 % of control
same,T/C,"endpoint: median tumor weight (est.), dose: 18.7 mg/kg/injection, schedule: Q03HX024 (ip), vehicle: saline with Tween-80, higher = larger tumour",82 % of control and 92 % of control
same,T/C,"endpoint: median tumor weight (est.), dose: 75.0 mg/kg/injection, schedule: Q03HX024 (ip), vehicle: saline with Tween-80, higher = larger tumour",93 % of control
CC(=O)OCC12CCC(C)=CC1OC1C(OS(C)(=O)=O)C(=O)C2(C)C12CO2 (stereo unspecified),T/C,"endpoint: median tumor weight (est.), dose: 0.25 mg/kg/injection, schedule: Q07DX002 (ip), vehicle: saline, higher = larger tumour",189 % of control
same,T/C,"endpoint: median tumor weight (est.), dose: 5.0 mg/kg/injection, schedule: Q07DX002 (ip), vehicle: saline, higher = larger tumour",98 % of control
same,T/C,"endpoint: median tumor weight (est.), dose: 10.0 mg/kg/injection, schedule: Q07DX002 (ip), vehicle: saline, higher = larger tumour",88 % of control
CC1(O)C=CC(=O)C=C1,T/C,"endpoint: median tumor weight (est.), dose: 50.0 mg/kg/injection, schedule: Q07DX002 (ip), vehicle: water, higher = larger tumour",114 % of control
CC(=O)OCC1(C)NC(=O)c2ccccc2O1 (stereo unspecified),T/C,"endpoint: median tumor weight (est.), dose: 56.2 mg/kg/injection, schedule: Q07DX002 (ip), vehicle: saline with Tween-80, higher = larger tumour",54 % of control
same,T/C,"endpoint: median tumor weight (est.), dose: 100.0 mg/kg/injection, schedule: Q07DX002 (ip), vehicle: saline with Tween-80, higher = larger tumour",98 % of control
same,T/C,"endpoint: median tumor weight (est.), dose: 112.5 mg/kg/injection, schedule: Q07DX002 (ip), vehicle: saline with Tween-80, higher = larger tumour",62 % of control
same,T/C,"endpoint: median tumor weight (est.), dose: 200.0 mg/kg/injection, schedule: Q07DX002 (ip), vehicle: saline with Tween-80, higher = larger tumour",109 % of control
same,T/C,"endpoint: median tumor weight (est.), dose: 225.0 mg/kg/injection, schedule: Q07DX002 (ip), vehicle: saline with Tween-80, higher = larger tumour",69 % of control
same,T/C,"endpoint: median tumor weight (est.), dose: 400.0 mg/kg/injection, schedule: Q07DX002 (ip), vehicle: saline with Tween-80, higher = larger tumour",153 % of control
same,T/C,"endpoint: median tumor weight (est.), dose: 450.0 mg/kg/injection, schedule: Q07DX002 (ip), vehicle: saline with Tween-80, higher = larger tumour",48 % of control
same,T/C,"endpoint: median tumor weight (est.), dose: 900.0 mg/kg/injection, schedule: Q07DX002 (ip), vehicle: saline with Tween-80, higher = larger tumour",48 % of control
C=C(C)/C([O-])=N/[N+](C)(C)CC(O)CCCCCCCCCCCC (stereo unspecified),T/C,"endpoint: median tumor weight (est.), dose: 25.0 mg/kg/injection, schedule: Q01DX001 (ip), vehicle: saline, higher = larger tumour",105 % of control
same,T/C,"endpoint: median tumor weight (est.), dose: 50.0 mg/kg/injection, schedule: Q01DX001 (ip), vehicle: saline, higher = larger tumour",100 % of control
same,T/C,"endpoint: median tumor weight (est.), dose: 100.0 mg/kg/injection, schedule: Q01DX001 (ip), vehicle: saline, higher = larger tumour",109 % of control
same,T/C,"endpoint: median tumor weight (est.), dose: 200.0 mg/kg/injection, schedule: Q01DX001 (ip), vehicle: saline, higher = larger tumour",108 % of control
same,T/C,"endpoint: median tumor weight (est.), dose: 400.0 mg/kg/injection, schedule: Q01DX001 (ip), vehicle: saline, higher = larger tumour",156 % of control
CC[C@@]1(O)C[C@H](OC2CC(N(C)C)C(OC3CC(O)C(OC4CCC(=O)C(C)O4)C(C)O3)C(C)O2)c2c(cc3c(c2O)C(=O)c2c(O)cccc2C3=O)[C@H]1C(=O)OC (stereo partly specified),T/C,"endpoint: median survival time, dose: 5.3 mg/kg/injection, schedule: Q07DX002 (iv), vehicle: water, higher = longer survival",114 % of control
same,T/C,"endpoint: median survival time, dose: 8.3 mg/kg/injection, schedule: Q07DX002 (iv), vehicle: water, higher = longer survival",105 % of control
same,T/C,"endpoint: median survival time, dose: 20.0 mg/kg/injection, schedule: Q07DX002 (iv), vehicle: water, higher = longer survival",115 % of control
same,T/C,"endpoint: median tumor weight (est.), dose: 0.75 mg/kg/injection, schedule: Q07DX002 (ip), vehicle: water, higher = larger tumour",67 % of control
same,T/C,"endpoint: median tumor weight (est.), dose: 0.75 mg/kg/injection, schedule: Q07DX003 (ip), vehicle: water, higher = larger tumour",98 % of control
same,T/C,"endpoint: median tumor weight (est.), dose: 1.5 mg/kg/injection, schedule: Q07DX003 (ip), vehicle: water, higher = larger tumour",123 % of control
same,T/C,"endpoint: median tumor weight (est.), dose: 3.0 mg/kg/injection, schedule: Q07DX003 (ip), vehicle: water, higher = larger tumour",103 % of control
same,T/C,"endpoint: median tumor weight (est.), dose: 6.0 mg/kg/injection, schedule: Q07DX003 (ip), vehicle: water, higher = larger tumour",75 % of control
same,T/C,"endpoint: median tumor weight (est.), dose: 12.0 mg/kg/injection, schedule: Q07DX003 (ip), vehicle: water, higher = larger tumour",40 % of control
CCCCCC[Se][Se]CCCCCC,T/C,"endpoint: median tumor weight (est.), dose: 3.12 mg/kg/injection, schedule: Q07DX002 (ip), vehicle: Klucel (hydroxypropylcellulose) (HPC), higher = larger tumour",100 % of control
same,T/C,[1],95 % of control
CC(=O)OC1(C)CC(C)C(=O)C(C(O)CC2CC(=O)NC(=O)C2)C1 (stereo unspecified),T/C,"endpoint: median tumor weight (est.), dose: 47.0 micrograms/kg/injection, schedule: Q07DX002 (ip), vehicle: saline, higher = larger tumour",106 % of control
same,T/C,"endpoint: median tumor weight (est.), dose: 94.0 micrograms/kg/injection, schedule: Q07DX002 (ip), vehicle: saline, higher = larger tumour",123 % of control
same,T/C,"endpoint: median tumor weight (est.), dose: 188.0 micrograms/kg/injection, schedule: Q07DX002 (ip), vehicle: saline, higher = larger tumour",116 % of control
same,T/C,"endpoint: median tumor weight (est.), dose: 375.0 micrograms/kg/injection, schedule: Q07DX002 (ip), vehicle: saline, higher = larger tumour",117 % of control
same,T/C,"endpoint: median tumor weight (est.), dose: 750.0 micrograms/kg/injection, schedule: Q07DX002 (ip), vehicle: saline, higher = larger tumour",101 % of control
ClC1=C(Cl)C(Cl)=C(Cl)C1=Cc1ccccc1,T/C,"endpoint: median tumor weight (est.), dose: 0.78 mg/kg/injection, schedule: Q07DX002 (ip), vehicle: saline with Tween-80, higher = larger tumour",119 % of control
same,T/C,"endpoint: median tumor weight (est.), dose: 1.56 mg/kg/injection, schedule: Q07DX002 (ip), vehicle: saline with Tween-80, higher = larger tumour",95 % of control
same,T/C,"endpoint: median tumor weight (est.), dose: 6.25 mg/kg/injection, schedule: Q07DX002 (ip), vehicle: saline with Tween-80, higher = larger tumour",114 % of control
same,T/C,"endpoint: median tumor weight (est.), dose: 12.5 mg/kg/injection, schedule: Q07DX002 (ip), vehicle: saline with Tween-80, higher = larger tumour",114 % of control
same,T/C,"endpoint: median tumor weight (est.), dose: 25.0 mg/kg/injection, schedule: Q07DX002 (ip), vehicle: saline with Tween-80, higher = larger tumour",58 % of control
O=C(O)C1(NO)CCCCC1,T/C,[1],56 % of control
same,T/C,[2],86 % of control and 105 % of control
same,T/C,"endpoint: median tumor weight (est.), dose: 400.0 mg/kg/injection, schedule: Q07DX002 (ip), vehicle: Klucel (hydroxypropylcellulose) (HPC), higher = larger tumour",118 % of control and 94 % of control
same,T/C,"endpoint: median tumor weight (est.), dose: 800.0 mg/kg/injection, schedule: Q07DX002 (ip), vehicle: Klucel (hydroxypropylcellulose) (HPC), higher = larger tumour",112 % of control and 103 % of control
NNC(=S)N/N=C/c1ccccn1,T/C,"endpoint: median tumor weight (est.), dose: 3.12 mg/kg/injection, schedule: Q07DX002 (ip), vehicle: suspension in saline, higher = larger tumour",84 % of control
same,T/C,"endpoint: median tumor weight (est.), dose: 6.25 mg/kg/injection, schedule: Q07DX002 (ip), vehicle: suspension in saline, higher = larger tumour",49 % of control
same,T/C,[3],77 % of control
same,T/C,[4],75 % of control
same,T/C,[5],64 % of control
